Laboratory results taken from patent publication US8551972B2, “Agonists of A2A adenosine receptors for treating recurrent tumor growth” (Adenosine Therapeutics, LLC, priority 2007, dated 2013).
“Also recorded” adds a separate entry of the source.

Tested on: C26 colorectal carcinoma liver metastases
Experiment: Mouse model of hepatic ischemia/reperfusion (I/R)-accelerated outgrowth of C26 colorectal liver metastases
Assay type: in vivo, mouse (male Balb/C)
Settings: for ratio of hepatic replacement area (HRA) values in ischemic (clamped) left liver lobes versus non-ischemic right and median liver lobes: FIG. 4, I/R-subjected mice, day 10, sham about 1, untreated I/R about 2.5-fold; for accelerated (necrosis-associated) tumor growth in the clamped left liver lobes following I/R: left lobar I/R on day 5, livers day 10, ZM241385 1 micro-g/kg bolus + 10 ng/kg/min minipump, 3 days
From the text: A mouse model has been enabled in which selective temporary occlusion of blood flow into the left liver lobe results in a profound acceleration of tumor growth in the clamped liver lobes, but not in the unclamped liver lobes. An A2A receptor agonist was then studied to determine its effect on the accelerated tumor growth.
• Male Balb/C mice (10-12 weeks) are housed under standard laboratory conditions with free access to water and chow and a 12-hour dark-light cycle. 2. Before the Experiment: Cell Culture • The murine colon carcinoma cell line C26 is cultured in Dulbecco's modified Eagle's medium supplemented with 5% heat-inactivated fetal calf serum, penicillin (100 units/ml) and streptomycin (100 μg/ml) in a 5% carbon dioxide environment. 3. Day 0: Induction of Liver Metastases • Confluent cultures of the C26 cell line are harvested by brief trypsinization (0.05 trypsin in 0.02% EDTA). • After centrifugation, single cell suspensions are prepared in PBS to a final concentration of 5×10^4 cells/100 μl. • Cell viability is determined by trypan blue staining, and should be ≧98%. • The induction of liver metastases is performed under inhalation anesthesia with a 1.5-2% isoflurane/O2 mixture using a mask. • Buprenorfine (3 μg/mouse) is administered intramuscularly prior to surgery to provide sufficient intra- and postoperative analgesia. • Surgical procedures are performed under aseptic conditions. • Body temperature is maintained at 36.5-37.5° C. by placing the animals on a heated table and covering them by aluminium foil. • Through a left lateral flank incision, 5×10^4 C26 colorectal carcinoma cells are injected into the splenic parenchyma (within an hour after trypsinisation). • After ten minutes, the spleen is removed to prevent intrasplenic tumor growth. • After the procedure a small amount of saline is left in the abdominal cavity and the peritoneum and skin are separately closed with 5.0 vicryl. • Animals are allowed to recover from anesthesia under standard laboratory conditions and are allowed free access to water and chow. 4. Day 0-5: • Micrometastases are allowed to develop throughout the liver for 5 days. 5. Day 5: Marine Model of Hepatic I/R • The induction of hepatic I/R is performed under inhalation anesthesia with a 1.5-2% isoflurane/O2 mixture using a mask. • Buprenorfine (3 μg/mouse) is administered intramuscularly prior to surgery to provide sufficient intra- and postoperative analgesia. • Surgical procedures are performed under aseptic conditions. • Body temperature is maintained at 36.5-37.5° C. by placing the animals on a heated table and covering them by aluminium foil. • ATL-313 solutions are prepared and suspended in osmotic minipumps (Alzet) at a dose of 3 ng/kg/min. Minipumps are placed in normal saline at 37° C. for at least 4 hours prior to the operation, to allow immediate drug delivery. • After laparotomy, mice receive an intraperitoneal bolus injection of 1 ng/kg ATL-313. • A control group received the A2AR antagonist ZM241385 as an intraoperative bolus (1 micro-g/kg) and subsequently continuously using osmotic intraperitoneal minipumps (10 ng/kg/min; 3 days). • Sham operated mice undergo laparotomy with exposure of the liver but without interruption of hepatic flow. • Partial hepatic I/R is induced by occluding the vascular inflow of the left lateral liver lobe for 45 minutes, corresponding to approximately 40% of the liver mass. • Surgical foil is placed over the laparotomy wound to avoid dehydration. • After removal of the clamps a small amount of saline is left in the abdominal cavity • The peritoneum and skin are separately closed with 5.0 vicryl. 6. Day 5-10: • Micrometastases are allowed to grow out to macrometastases (approximately 10-20% of the non-clamped lobes at day 10) for 5 days 7. Day 10: • Livers were harvested, fixed in formalin, and embedded in paraffin. Tissue sections were stained with H&E and the following parameters were assessed by an operator who was blinded to treatment. • 1. […]

[1] = ATL-313 1 ng/kg bolus + 3 ng/kg/min minipump

SMILES: COC(=O)N1CCC(CC#Cc2nc(N)c3ncn(C4OC(C(=O)NC5CC5)C(O)C4O)c3n2)CC1 (stereo not shown) [ATL313, 4-{3-[6-Amino-9-(5-cyclopropylcarbamoyl-3,4-dihydroxy-tetrahydro-furan-2-yl)-9H-purin-2-yl]-prop-2-ynyl}-piperidine-1-carboxylic Acid methyl ester]
- ratio of hepatic replacement area (HRA) values in ischemic (clamped) left liver lobes versus non-ischemic right and median liver lobes: 1
- tissue necrosis (liver) (left lobar I/R on day 5 (45 min clamping), livers harvested day 10, H&E, ATL-313 1 ng/kg i.p. bolus + 3 ng/kg/min osmotic minipump): prevents; also recorded: almost completely prevented
- accelerated (necrosis-associated) tumor growth in the clamped left liver lobes following I/R [1]: prevents; also recorded: almost completely prevented
- accelerated (necrosis-associated) tumor growth in the clamped left liver lobes following I/R (ATL-313 1 ng/kg bolus + 3 ng/kg/min minipump, listed as ATL): prevents the increase in tumor growth
- inflammation following I/R (left lobar I/R on day 5, ATL-313 1 ng/kg bolus + 3 ng/kg/min minipump): almost completely prevented

SMILES: Nc1nc(NCCc2ccc(O)cc2)nc2nc(-c3ccco3)nn12 [ZM241385, reference compound]
- ratio of hepatic replacement area (HRA) values in ischemic (clamped) left liver lobes versus non-ischemic right and median liver lobes: increasing the left-to-right/median ratio, although this difference did not reach statistical significance
- accelerated (necrosis-associated) tumor growth in the clamped left liver lobes following I/R [1]: appears to aggravate tumor growth
